For this assay, the system named is recombinant NL4-3 virus (Renilla luciferase in nef, Gag P373S). Put plainly: HIV Cell Culture Assay (luciferase reporter virus in MT-2 cells). The assay is classed as cell-based. The conditions noted are these: NL43. The method, then:
MT-2 cells and 293T cells were obtained from the NIH AIDS Research and Reference Reagent Program. MT-2 cells were propagated in RPMI 1640 media supplemented with 10% heat inactivated fetal bovine serum, […]. The 293T cells were propagated in DMEM media supplemented with 10% heat inactivated fetal bovine serum (FBS), 100 units/mL penicillin G and 100 μg/mL streptomycin. The proviral DNA clone of NL4-3 was obtained from the NIH AIDS Research and Reference Reagent Program. A recombinant NL4-3 virus, in which a section of the nef gene from NL4-3 was replaced with the Renilla luciferase gene, was used as a reference virus. In addition, residue Gag P373 was converted to P373S. Briefly, the recombinant virus was prepared by transfection of the altered proviral clone of NL4-3. Transfections were performed in 293T cells using LipofectAMINE PLUS from Invitrogen (Carlsbad, Calif.), according to manufacturer's instruction. The virus was titered in MT-2 cells using luciferase enzyme activity as a marker. Luciferase was quantitated using the Dual Luciferase kit from Promega (Madison, Wis.), with modifications to the manufacturer's protocol. The diluted Passive Lysis solution was pre-mixed with the re-suspended Luciferase Assay Reagent and the re-suspended Stop & Glo Substrate (2:1:1 ratio). Fifty (50) μL of the mixture was added to each aspirated well on assay plates and luciferase activity was measured immediately on a Wallac TriLux (Perkin-Elmer). Antiviral activities of inhibitors toward the recombinant virus were quantified by measuring luciferase activity in cells infected for 4-5 days with NLRluc recombinants in the presence serial dilutions of the inhibitor.

For `CC(C)C1=C2[C@H]3CC[C@@H]4[C@@]5(C)CC=C(c6ccc(C(=O)O)cc6)C(C)(C)[C@@H]5CC[C@@]4(C)[C@]3(C)CC[C@@]2(C(O)CNCCN(C)C)CC1=O` (stereo partly drawn) [Example 14, 4-((3aR,5aR,5bR,7aR,11aS,11bR,13aS)-3a-(2-((2-(dimethylamino)ethyl)amino)-1-hydroxyethyl)-1-isopropyl-5a,5b,8,8,11a-pentamethyl-2-oxo-3,3a,4,5,5a,5b,6,7,7a,8,11,11a,11b,12,13,13a-hexadecahydro-2H-cyclopenta[a]chrysen-9-yl)benzoic acid], the EC50 came to 5.36 nM.

On to `CC(C)C1=C2[C@H]3CC[C@@H]4[C@@]5(C)CC=C(C6=CC[C@](CF)(C(=O)O)CC6)C(C)(C)[C@@H]5CC[C@@]4(C)[C@]3(C)CC[C@@]2(NCCN2CCS(=O)(=O)CC2)CC1=O` [Example 9, (S)-4-((3aR,5aR,5bR,7aR,11aS,11bR,13aS)-3a-((2-(1,1-dioxidothiomorpholino)ethyl)amino)-1-isopropyl-5a,5b,8,8,11a-pentamethyl-2-oxo-3,3a,4,5,5a,5b,6,7,7a,8,11,11a,11b,12,13,13a-hexadecahydro-2H-cyclopenta[a]chrysen-9-yl)-1-(fluoromethyl)cyclohex-3-enecarboxylic acid], for which the EC50 was less than 100 nM.

Broadly, the EC50 is the concentration needed to bring the measured effect to its halfway point.

The values above are taken from patent US9969767B2, “Oxolupene derivatives” (priority 2014, dated 2018).
